The values below come from patent US20100203575A1, “In Vitro Beating Heart Model” (INSERM (Institut National de la Sante et de la Recherche …, priority 2007, published 2010).

Where two headings read alike, the source gives them in different places.

The subject of assay [1] is heart slice cultures. Particulars: 10, 100 nmol/L and 1 μmol/L, 30 days after plating, 37° C., monitored 3 min after stimulation. As for the experimental part: (§1) Cultures were prepared from ventricular sections of 3 day-old rats (Charles River, France) or 8 weeks-old human embyros. The hearts were removed and placed in Phosphate-Buffered Saline (PBS), atria were removed and the ventricles sliced at 1 mm-thickness using a rodent heart matrix (Harvard Apparatus). The heart slices were immediately transferred to a Millicell-CM 0.4 μm membrane (Millipore, France) and the insert placed into a 6 well-plate containing 1 ml of medium.
(§2) The culture medium consisted of DMEM/F12 medium supplemented with 20% Knockout Serum Replacement, 1% non essential amino acids, 2 mM L-glutamine, 0.1 mM β-mercaptoethanol, and 1% PS (Invitrogen, France). Heart slices were maintained for 30-80 days at 37° C. in a humidified atmosphere containing 5% CO2.
(§3) Further functional characterization of the contractile function of ventricular slices was carried out on 24 slices, at 30 days after plating, using a stereomicroscope and a temperature-controlled stage set at 37° C., following incubation with 10, 100nM and 1 μM of epinephrine (Sigma, France). Beating frequency was monitored 3 min after pharmacological stimulation.

A further assay concerns human heart slices. Particulars: slices from 8 week-old human embryo. As for the experimental part:
as §1, §2, §3

Assay [2] concerns heart slice cultures. On the procedure:
Additional analysis was performed on 3 slices, at 30 days after plating using a confocal laser scanning microscope (Zeiss), following incubation with 5 μM fluo-4 AM (Invitrogen, France) for 20 min at 37° C.
To monitor spontaneous Ca2+ spiking, heart slice cultures, were loaded with 5 μmol/L Fluo-4 AM ester and the temporal change of fluorescent intensity was measured at physiological temperature (37° C.).

For the molecule `CNC[C@H](O)c1ccc(O)c(O)c1` [epinephrine], the figures for the “spontaneous beating frequencies of heart slice” value in the assay with heart slice cultures [1] and in the assay on heart slice cultures [1] (listed as Epinepfrine) were “increased the spontaneous beating frequencies of heart slice in dose-response manner” and “increased the frequencies of spontaneous beating in dose-response manner”, respectively. Besides, the “spontaneous beating frequency of human heart slices” value is “increased spontaneous beating frequency of both human heart slices, in a dose-dependent manner” in the assay with human heart slices and “increases the frequencies of beating in human heart slices” in the assay with human heart slices (listed as Epinephrine). Further, the “Ca2+-transient amplitude and frequency” value in the assay on heart slice cultures [2] (heart slice loaded with fluo-4, confocal analysis) was “dose-dependent increase in Ca2+-transient amplitude and frequency”. For the same molecule, in the assay on heart slice cultures [2] (tested 10, 100 nmol/L and 1 μmol/L), the “concentration giving maximal response” value turned out to be 1 µmol/L.
